Measured values published in ChEMBL document CHEMBL5303573, “Mapping human microbiome drug metabolism by gut bacteria and their genes” (Nature, 2019).

Experiments:
Format in all cases: ADME
Set-up in all cases: dose 2 uM
Conditions in all cases: 2 µM
[1] = molecular target: T1, Acyltransferase 3 domain-containing protein (Phocaeicola dorei, UniProt B6W2J3); experiment: (§1) The drug is tested on Bacteroides dorei strain: DSM17855 for biotransformation. The drug concentrations were measured before and after a 12-h incubation by liquid-chromatography-coupled mass spectrometry (LC–MS)
T1 sequence (B6W2J3 whole entry): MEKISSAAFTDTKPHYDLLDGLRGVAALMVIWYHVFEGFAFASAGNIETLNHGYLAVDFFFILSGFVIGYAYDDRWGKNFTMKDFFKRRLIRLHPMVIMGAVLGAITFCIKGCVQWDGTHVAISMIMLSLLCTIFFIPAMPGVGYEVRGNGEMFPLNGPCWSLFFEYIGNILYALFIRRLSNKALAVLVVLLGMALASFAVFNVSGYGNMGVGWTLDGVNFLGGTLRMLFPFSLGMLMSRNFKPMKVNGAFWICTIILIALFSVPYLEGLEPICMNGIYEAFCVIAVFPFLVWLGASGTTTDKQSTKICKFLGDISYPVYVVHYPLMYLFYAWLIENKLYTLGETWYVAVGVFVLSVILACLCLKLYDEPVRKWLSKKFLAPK

Esterase = molecular target: T2, Esterase (Phocaeicola dorei, UniProt B6W2J6); experiment: as §1
T2 sequence (B6W2J6 whole entry): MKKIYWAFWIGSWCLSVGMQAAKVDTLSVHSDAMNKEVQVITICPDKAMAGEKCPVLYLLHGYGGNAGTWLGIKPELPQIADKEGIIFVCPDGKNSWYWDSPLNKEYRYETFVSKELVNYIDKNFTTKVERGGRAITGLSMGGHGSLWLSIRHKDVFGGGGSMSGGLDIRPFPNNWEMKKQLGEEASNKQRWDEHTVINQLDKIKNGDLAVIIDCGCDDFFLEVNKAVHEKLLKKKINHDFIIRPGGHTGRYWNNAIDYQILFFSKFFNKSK

[2] = molecular target: T3, Nitroreductase domain-containing protein (Phocaeicola dorei, UniProt B6VU18); experiment: as §1
T3 sequence (B6VU18 whole entry): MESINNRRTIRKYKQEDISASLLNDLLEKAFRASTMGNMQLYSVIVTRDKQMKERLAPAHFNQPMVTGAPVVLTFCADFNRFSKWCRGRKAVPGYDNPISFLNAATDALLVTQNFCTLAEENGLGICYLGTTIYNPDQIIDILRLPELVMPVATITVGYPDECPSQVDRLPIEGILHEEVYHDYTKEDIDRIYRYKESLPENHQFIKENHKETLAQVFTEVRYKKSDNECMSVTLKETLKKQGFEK

[3] = molecular target: T4, Nitroreductase domain-containing protein (Phocaeicola dorei, UniProt B6W3P3); experiment: as §1
T4 sequence (B6W3P3 whole entry): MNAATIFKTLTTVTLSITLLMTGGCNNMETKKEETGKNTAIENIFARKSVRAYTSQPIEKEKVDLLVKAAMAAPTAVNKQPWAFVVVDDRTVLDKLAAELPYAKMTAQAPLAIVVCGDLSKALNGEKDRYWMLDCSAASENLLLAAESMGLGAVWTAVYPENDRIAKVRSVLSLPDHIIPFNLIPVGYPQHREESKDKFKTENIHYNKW

[4] = molecular target: T5, SGNH hydrolase-type esterase domain-containing protein (Phocaeicola dorei, UniProt B6VTE7); experiment: as §1
T5 sequence (B6VTE7 whole entry): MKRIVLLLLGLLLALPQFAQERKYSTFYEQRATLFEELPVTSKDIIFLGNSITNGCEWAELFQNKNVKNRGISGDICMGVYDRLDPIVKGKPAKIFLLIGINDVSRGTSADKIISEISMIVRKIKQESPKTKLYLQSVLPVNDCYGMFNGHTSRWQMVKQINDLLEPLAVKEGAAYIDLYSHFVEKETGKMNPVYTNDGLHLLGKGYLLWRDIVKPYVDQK

[5] = molecular target: T6, SGNH hydrolase-type esterase domain-containing protein (Phocaeicola dorei, UniProt B6W1J1); experiment: as §1
T6 sequence (B6W1J1 whole entry): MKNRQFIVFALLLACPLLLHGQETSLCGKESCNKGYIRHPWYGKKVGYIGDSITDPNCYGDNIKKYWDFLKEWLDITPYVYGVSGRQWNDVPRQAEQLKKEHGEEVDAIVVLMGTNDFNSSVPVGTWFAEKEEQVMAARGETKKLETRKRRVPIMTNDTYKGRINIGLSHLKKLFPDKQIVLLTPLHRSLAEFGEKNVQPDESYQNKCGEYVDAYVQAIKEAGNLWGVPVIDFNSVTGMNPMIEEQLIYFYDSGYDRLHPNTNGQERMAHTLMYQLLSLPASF

[6] = molecular target: T7, SGNH hydrolase-type esterase domain-containing protein (Phocaeicola dorei, UniProt B6W293); experiment: as §1
T7 sequence (B6W293 whole entry): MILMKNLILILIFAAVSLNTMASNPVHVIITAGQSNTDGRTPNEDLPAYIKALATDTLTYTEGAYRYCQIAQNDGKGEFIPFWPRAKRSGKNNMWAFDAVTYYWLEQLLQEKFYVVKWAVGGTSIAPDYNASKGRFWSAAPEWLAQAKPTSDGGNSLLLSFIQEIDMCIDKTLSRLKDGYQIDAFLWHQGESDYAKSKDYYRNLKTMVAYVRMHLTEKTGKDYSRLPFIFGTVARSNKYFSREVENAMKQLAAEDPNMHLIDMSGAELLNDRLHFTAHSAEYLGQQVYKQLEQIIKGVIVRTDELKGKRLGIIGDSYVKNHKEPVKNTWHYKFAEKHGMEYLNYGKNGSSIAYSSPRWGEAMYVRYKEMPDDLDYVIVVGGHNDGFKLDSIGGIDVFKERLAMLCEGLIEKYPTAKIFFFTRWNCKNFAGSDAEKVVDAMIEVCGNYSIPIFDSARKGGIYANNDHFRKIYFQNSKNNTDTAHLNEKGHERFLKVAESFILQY

[7] = molecular target: T8, Steroid 5-alpha reductase C-terminal domain-containing protein (Phocaeicola dorei, UniProt B6W0N3); experiment: as §1
T8 sequence (B6W0N3 whole entry): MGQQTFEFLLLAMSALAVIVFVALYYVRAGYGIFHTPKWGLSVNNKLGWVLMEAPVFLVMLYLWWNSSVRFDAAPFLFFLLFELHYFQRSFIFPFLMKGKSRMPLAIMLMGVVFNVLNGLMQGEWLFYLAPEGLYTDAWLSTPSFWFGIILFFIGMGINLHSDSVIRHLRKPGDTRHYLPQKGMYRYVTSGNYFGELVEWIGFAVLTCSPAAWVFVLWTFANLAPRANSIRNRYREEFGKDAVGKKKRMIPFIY

Bacterial Biotransformation [1]: Compound NOT metabolized
Bacterial Biotransformation (Esterase): Compound NOT metabolized
Bacterial Biotransformation [2]: Compound NOT metabolized
Bacterial Biotransformation [3]: Compound NOT metabolized
Bacterial Biotransformation [4]: Compound NOT metabolized
Bacterial Biotransformation [5]: Compound NOT metabolized
Bacterial Biotransformation [6]: Compound NOT metabolized
Bacterial Biotransformation [7]: Compound metabolized
SMILES: C[C@]12CCC(=O)C=C1[C@@H]1C[C@@H]1[C@H]1[C@@H]3[C@@H]4C[C@@H]4[C@@]4(CCC(=O)O4)[C@@]3(C)CC[C@@H]12 [DROSPIRENONE]
